How the values were obtained:
Type in all cases: cell-based, human
H23 cells = assay: Western blot of apoptosis-related proteins (cleaved PARP, Bcl-2, Bax)
Description: (§1) The protein expression levels in NSCLC cells were assessed through Western blot analysis. A549, H23, and H292 cells were seeded at a density of 4 × 10^5 cells per well in 6-well cell culture plates. These cells were subjected to treatments with DH_32 at concentrations of 0, 25, 50, and 100 nM for 24 h at 37 °C.
(§2) Following treatment, the cells were collected using cold PBS and incubated on ice with a lysis buffer. The lysis buffer contained 50 mM 4-(2-hydroxyethyl)-1-piperazineethanesulfonic acid (pH 7.5), 150 mM NaCl, 5 mM EDTA, 1% Triton X-100, 1 mM phenylmethylsufonyl fluoride, and 2 μg/mL pepstatin A (cat no: 9803, Cell Signaling), along with complete protease inhibitor cocktail tablets provided in EASYpack (Roche, cat no: 04693116001). The incubation occurred for 40 min on ice, followed by centrifugation at 12,000× g at 4 °C for 15 min. Cell lysates were collected, and the protein content was quantified using the bicinchoninic acid (BCA) protein kit from Thermo-Fisher Scientific, Rockford, IL, USA. The sample was denatured by heating at 95 °C for 5 min with a sample buffer. The protein was loaded onto a 10% sodium dodecyl sulfate polyacrylamide gel electrophoresis (SDS-PAGE). Following gel separation, the proteins were transferred onto a nitrocellulose membrane with a pore size of 0.45 μm. The membranes were incubated with 5% nonfat dry milk in TBST (25 mm Tris-HCl, pH 7.4, 125 mm NaCl, and 0.05% Tween 20) for 1 h 30 min. Following this, the membrane was exposed to primary antibodies (Cell Signaling) including rabbit PARP, BcL2, Bax, CD133, CD44, OCT4, ALDH1A1, and β-catenin, and incubated at 4 °C overnight. Rabbit β-actin served as the control for loading normalization. The primary antibodies were diluted to 1:1000 in 5% w/v BSA in TBST. The membranes were washed with TBST and were then exposed to horseradish-peroxidase (HRP)-conjugated isotype-specific secondary antibodies, as well as anti-rabbit and anti-mouse IgG (1:2000 in 5% w/v skim milk in TBST), for 1 h at RT. Membranes were washed again with TBST. A chemiluminescent substrate (Supersignal West Pico; Pierce, Rockford, IL, USA) was applied to detect complex reactivity, and the signal intensity was quantified through densitometry. Protein intensity was analyzed by using ImageJ software (Image J 1.52a, Rasband, W., National Institutes of Health, Bethesda, MD, USA). RT acted as the positive control for this experiment.

H292 cells = assay: as above
Description: as §1, §2

A549 cells = assay: as above
Description: as §1, §2

[1] = system: A549, H23, and H292 cells; assay: Immunofluorescence of stem cell markers and transcription factors; conditions: A549, H23, and H292, 50 nM, 24 h
Description: A549, H23, and H292 NSCLC cells were seeded at a concentration of 1 × 10^4 cells per well in 96-well plates. The cells were exposed to different concentrations of DH_32 (0, 25, 50, and 100 nM) for 24 h, after which the medium was removed. Following that, the cells were subjected to fixation with 4% paraformaldehyde for 15 min. The cells were permeabilization with 0.5% Triton-X for 5 min, followed by the blocking of non-specific proteins with 10% FBS in 0.1% Triton-X PBS for 1 h at room temperature. The cells were exposed to a 1:400 dilution of primary antibodies (CD133, CD44, ALDH1A1, OCT4, NANOG, SOX2, and β-catenin) and incubated at 4 °C overnight. On the subsequent day, the cells were treated with a 1:500 dilution of the following secondary antibodies: Alexa Fluor 594-conjugated goat anti-rabbit IgG (H+L) (Invitrogen) and Alexa Fluor 488-conjugated goat anti-mouse IgG (H+L) (Invitrogen). Simultaneously, the localization of nuclei was stained with Hoechst 33342 for 1 h at room temperature. The cells were rinsed with PBS and then covered with 50% glycerol. The images were captured by a fluorescence microscope (Olympus IX 51 with DP70; Olympus America Inc., Center valley, PA, USA). The fluorescence intensity was measured by Image J software. RT acted as the positive control for this experiment.

**Q.** With `COC1=C(C)C(=O)C2=C(C1=O)[C@@H]1CN(Cc3ccc4ccccc4c3)[C@@H](C#N)[C@H](C2)N1C` [DH_32, (1R,4R,5S)-9-methoxy-8,11-dimethyl-3-(naphthalen-2-ylmethyl)-7,10-dioxo-1,2,3,4,5,6,7,10-octahydro-1,5-epiminobenzo[d]azocine-4-carbonitrile] as the molecule, how does the “anti-apoptotic Bcl-2 protein level” value (H23 cells; H23, 0–100 nM, 24 h) read?
**A.** Its value is “significant reduction in a dose-dependent manner”.

**Q.** And the “cleaved PARP level” value (H23 cells; H23, 50 nM, 24 h)?
**A.** The value was “substantial increase”.

**Q.** What about the “pro-apoptotic protein Bax level” value (H23 cells; H23, 24 h) of the same molecule?
**A.** Its value is “remained unaltered”.

**Q.** And the “anti-apoptotic Bcl-2 protein level” value (H292 cells; H292, 0–100 nM, 24 h)?
**A.** Its value is “significant reduction in a dose-dependent manner”.

**Q.** What about the “cleaved PARP level” value (H292 cells; H292, 50 nM, 24 h) of the same molecule?
**A.** Its value is “substantial increase”.

**Q.** And the “pro-apoptotic protein Bax level” value (H292 cells; H292, 24 h)?
**A.** The value was “remained unaltered”.

**Q.** What about the “anti-apoptotic Bcl-2 protein level” value (A549 cells; A549, 0–100 nM, 24 h) of the same molecule?
**A.** The value was “significant reduction in a dose-dependent manner”.

**Q.** What about the “cleaved PARP level” value (A549 cells; A549, 50 nM, 24 h, compared to the RT treatment) of the same molecule?
**A.** The value was “six-fold increase”.

**Q.** What about the “pro-apoptotic protein Bax level” value (A549 cells; A549, 24 h, compared to the parent compound) of the same molecule?
**A.** The value was “two-fold increase”.

**Q.** What about the “fluorescence signals of stem cell markers CD133, CD44, and ALDH1A1” value [1] of the same molecule?
**A.** Its value is “approximately 0.5 fold”.

**Q.** What about the “fluorescence signals of stem cell transcription factors OCT4, NANOG, and SOX2” value [1] of the same molecule?
**A.** Its value is “approximately 0.5 fold”.
